According to the supplement of paper PMC11208160:

Assay: recombinant UMI read abundance after kanamycin selection (control-corrected) (log10(CPM+1)); higher = more efficient recombination; extreme values may be limits of the assay; sequences stand for … in AGTGCAGAGAAAATCGGCCAGTTTTCTCTGCCTGCAGTCCGCATGCCGTGGGACCCCTTGGGTTCTAACCTGTTGCCTAGATTTATGCAGCGGACTGCCTTTCTCCCAAAGTGATAAACCGG…AGGTTGGTTTCACT; site = the 11-nt donor
Procedure, shortened: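 Values, expressed as log10(CPM+1), derive from recombinant UMI counts converted to CPM, averaged across replicates and scaled by control-derived factors. Plating was with IPTG (0.07 mM) plus kanamycin or unselected, two replicates each. The screen pooled donor and donor-binding-loop pairs for the IS621 bridge recombinase in Escherichia coli.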
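Note: IS621 bridge recombinase in Escherichia coli cells against a fixed T5 target plasmid.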

Sequence	recombinant UMI read abundance (log10)
CGCGGCCCATGGACCGGTTTTCCCGGTAATCCGTATTTGTT (site CGCGGCCCTAA)	0.202
CGCGGCCCATGGACCGGTTTTCCCGGTAATCCGTATTTGTT (site CTCGGCCCTAA)	0.00821
CGCGGCTCATGGACCGGTTTTCCCGGTAATCCGTATTTGGC (site CGCGGCTCTGC)	2.33
CGCGGTCCATGGACCGGTTTTCCCGGTAATCCGTATTTGCA (site CACGGTCCTTG)	0
CGCGGTCCATGGACCGGTTTTCCCGGTAATCCGTATTTGCA (site CCCGGTCCTTG)	0.3
CGCGGTCCATGGACCGGTTTTCCCGGTAATCCGTATTTGCA (site CGCGGTCCTTG)	1.12
CGCGGTCCATGGACCGGTTTTCCCGGTAATCCGTATTTGCA (site CTCGGTCCTTG)	0
CGCTAGGCATGGACCGGTTTTCCCGGTAATCCGTATTTGAC (site CGCTAGGCTGT)	1.08
CGCTCATCATGGACCGGTTTTCCCGGTAATCCGTATTTGGT (site CGATCATCTAG)	0.393
CGCTCATCATGGACCGGTTTTCCCGGTAATCCGTATTTGGT (site CGCTCATCTAC)	1.17
CGGAAGACATGGACCGGTTTTCCCGGTAATCCGTATTTGCA (site AGGAAGACTTG)	0.742
CGGAAGACATGGACCGGTTTTCCCGGTAATCCGTATTTGCA (site CGGAAGACTTG)	1.73
CGGAAGACATGGACCGGTTTTCCCGGTAATCCGTATTTGCA (site GGGAAGACTTG)	0
CGGAAGACATGGACCGGTTTTCCCGGTAATCCGTATTTGCA (site TGGAAGACTTG)	0.259
CGGAATACATGGACCGGTTTTCCCGGTAATCCGTATTTGTC (site CGGAATACTGA)	1.64
CGGAATACATGGACCGGTTTTCCCGGTAATCCGTATTTGTC (site CGGAATCCTAA)	0.0129
CGGAATCCATGGACCGGTTTTCCCGGTAATCCGTATTTGGG (site CGGAATCCTAA)	0
CGGAATCCATGGACCGGTTTTCCCGGTAATCCGTATTTGGG (site CGGAATCCTCC)	0.0126
CGGAATTCATGGACCGGTTTTCCCGGTAATCCGTATTTGCT (site CGGAATCCTAA)	0.00849
CGGAATTCATGGACCGGTTTTCCCGGTAATCCGTATTTGCT (site CGGAATTCTAG)	2.45
CGGACATCATGGACCGGTTTTCCCGGTAATCCGTATTTGAT (site CGGACATCTAA)	0.359
CGGACATCATGGACCGGTTTTCCCGGTAATCCGTATTTGAT (site CGGACATCTAC)	0.605
CGGACATCATGGACCGGTTTTCCCGGTAATCCGTATTTGAT (site CGGACATCTAG)	0
CGGACATCATGGACCGGTTTTCCCGGTAATCCGTATTTGAT (site CGGACATCTAT)	1.84
CGGACATCATGGACCGGTTTTCCCGGTAATCCGTATTTGCC (site CGGACATCTAG)	0.305

Sequence	recombinant UMI read abundance (log10)
CGGACATCATGGACCGGTTTTCCCGGTAATCCGTATTTGCC (site CGGACATCTCG)	0.00908
CGGACATCATGGACCGGTTTTCCCGGTAATCCGTATTTGCC (site CGGACATCTGG)	2.66
CGGACATCATGGACCGGTTTTCCCGGTAATCCGTATTTGCC (site CGGACATCTTG)	0
CGGACATCATGGACCGGTTTTCCCGGTAATCCGTATTTGCT (site AGGACATCTAG)	0.695
CGGACATCATGGACCGGTTTTCCCGGTAATCCGTATTTGCT (site CAGACATCTAG)	1.53
CGGACATCATGGACCGGTTTTCCCGGTAATCCGTATTTGCT (site CCGACATCTAG)	0.954
CGGACATCATGGACCGGTTTTCCCGGTAATCCGTATTTGCT (site CGAACATCTAG)	1.51
CGGACATCATGGACCGGTTTTCCCGGTAATCCGTATTTGCT (site CGCACATCTAG)	0
CGGACATCATGGACCGGTTTTCCCGGTAATCCGTATTTGCT (site CGGAAATCTAG)	0
CGGACATCATGGACCGGTTTTCCCGGTAATCCGTATTTGCT (site CGGACAACTAG)	0.552
CGGACATCATGGACCGGTTTTCCCGGTAATCCGTATTTGCT (site CGGACACCTAG)	0
CGGACATCATGGACCGGTTTTCCCGGTAATCCGTATTTGCT (site CGGACAGCTAG)	0.00346
CGGACATCATGGACCGGTTTTCCCGGTAATCCGTATTTGCT (site CGGACATCTAA)	0
CGGACATCATGGACCGGTTTTCCCGGTAATCCGTATTTGCT (site CGGACATCTAC)	0
CGGACATCATGGACCGGTTTTCCCGGTAATCCGTATTTGCT (site CGGACATCTAG)	2.42
CGGACATCATGGACCGGTTTTCCCGGTAATCCGTATTTGCT (site CGGACATCTAT)	1.21
CGGACATCATGGACCGGTTTTCCCGGTAATCCGTATTTGCT (site CGGACATCTCG)	0.0134
CGGACATCATGGACCGGTTTTCCCGGTAATCCGTATTTGCT (site CGGACATCTGG)	0.0128
CGGACATCATGGACCGGTTTTCCCGGTAATCCGTATTTGCT (site CGGACATCTTG)	0.756
CGGACATCATGGACCGGTTTTCCCGGTAATCCGTATTTGCT (site CGGACCTCTAG)	0.303
CGGACATCATGGACCGGTTTTCCCGGTAATCCGTATTTGCT (site CGGACGTCTAG)	0
CGGACATCATGGACCGGTTTTCCCGGTAATCCGTATTTGCT (site CGGACTTCTAG)	0.255
CGGACATCATGGACCGGTTTTCCCGGTAATCCGTATTTGCT (site CGGAGATCTAG)	0
CGGACATCATGGACCGGTTTTCCCGGTAATCCGTATTTGCT (site CGGATATCTAG)	1.9
CGGACATCATGGACCGGTTTTCCCGGTAATCCGTATTTGCT (site CGGCCATCTAG)	0.0134

Sequence	recombinant UMI read abundance (log10)
CGGACATCATGGACCGGTTTTCCCGGTAATCCGTATTTGCT (site CGGGCATCTAG)	0
CGGACATCATGGACCGGTTTTCCCGGTAATCCGTATTTGCT (site CGGTCATCTAG)	0.746
CGGACATCATGGACCGGTTTTCCCGGTAATCCGTATTTGCT (site CGTACATCTAG)	1.54
CGGACATCATGGACCGGTTTTCCCGGTAATCCGTATTTGCT (site CTGACATCTAG)	1.34
CGGACATCATGGACCGGTTTTCCCGGTAATCCGTATTTGCT (site GGGACATCTAG)	0
CGGACATCATGGACCGGTTTTCCCGGTAATCCGTATTTGCT (site TGGACATCTAG)	0.773
CGGACGACATGGACCGGTTTTCCCGGTAATCCGTATTTGGT (site CGGACGACTAC)	1.25
CGGACTGCATGGACCGGTTTTCCCGGTAATCCGTATTTGTT (site CGGAATCCTAA)	0
CGGACTGCATGGACCGGTTTTCCCGGTAATCCGTATTTGTT (site CGGACTGCTAA)	2.12
CGGACTTCATGGACCGGTTTTCCCGGTAATCCGTATTTGCT (site CGGACATCTAG)	0.905
CGGACTTCATGGACCGGTTTTCCCGGTAATCCGTATTTGCT (site CGGACCTCTAG)	1.61
CGGACTTCATGGACCGGTTTTCCCGGTAATCCGTATTTGCT (site CGGACGTCTAG)	0
CGGACTTCATGGACCGGTTTTCCCGGTAATCCGTATTTGCT (site CGGACTTCTAG)	2.17
CGGAGTACATGGACCGGTTTTCCCGGTAATCCGTATTTGTT (site CGGAATCCTAA)	0
CGGAGTACATGGACCGGTTTTCCCGGTAATCCGTATTTGTT (site CGGAGTACTAA)	2.14
CGGAGTCCATGGACCGGTTTTCCCGGTAATCCGTATTTGAT (site CGGAATCCTAA)	0.0131
CGGAGTCCATGGACCGGTTTTCCCGGTAATCCGTATTTGAT (site CGGAGTCCTAT)	1.98
CGGATATCATGGACCGGTTTTCCCGGTAATCCGTATTTGCT (site CGGAAATCTAG)	0
CGGATATCATGGACCGGTTTTCCCGGTAATCCGTATTTGCT (site CGGACATCTAG)	0
CGGATATCATGGACCGGTTTTCCCGGTAATCCGTATTTGCT (site CGGAGATCTAG)	0
CGGATATCATGGACCGGTTTTCCCGGTAATCCGTATTTGCT (site CGGATATCTAG)	1.51
CGGATGTCATGGACCGGTTTTCCCGGTAATCCGTATTTGTG (site CGGATGTCTCA)	2.74
CGGATTCCATGGACCGGTTTTCCCGGTAATCCGTATTTGTT (site CGGAATCCTAA)	0.00458
CGGATTCCATGGACCGGTTTTCCCGGTAATCCGTATTTGTT (site CGGACTCCTAA)	0.0161
CGGATTCCATGGACCGGTTTTCCCGGTAATCCGTATTTGTT (site CGGAGTCCTAA)	0.0137
